Assay results reported in the NIST ThermoML archive (doi:10.1016/j.jct.2006.08.009).

Assay: mn = molality of the nth substance listed, in mol/kg
Settings: 350 kPa, Liquid; for apparent molar heat capacity: Extra sensitive DSC

OC[C@@H](O)[C@@H](O)[C@H](O)[C@@H](O)CO [D-sorbitol] + O
Settings | apparent molar heat capacity [J/K/mol] | mass density [kg/m3]
278.15 K, m1 = 0.02 | 373 | 1001.46
278.15 K, m1 = 0.04 | 346.7 | 1002.79
278.15 K, m1 = 0.069 | 355.4 | 1005.09
278.15 K, m1 = 0.1997 | 360.1 | 1013.23
278.15 K, m1 = 0.4003 | 363.3 | 1025.52
278.15 K, m1 = 0.6991 | 367.7 | 1042.94
278.15 K, m1 = 0.9784 | 372.3 | 1057.65
278.15 K, m1 = 1.501 | 372.1 | 1082.71
278.15 K, m1 = 2.004 | 383.7 | 1104.6
283.15 K, m1 = 0.02 | 391 | 1001.14
283.15 K, m1 = 0.04 | 366.7 | 1002.47
283.15 K, m1 = 0.069 | 374.6 | 1004.71
283.15 K, m1 = 0.1997 | 378.8 | 1012.74
283.15 K, m1 = 0.4003 | 381.8 | 1024.88
283.15 K, m1 = 0.6991 | 385.6 | 1042.11
283.15 K, m1 = 0.9784 | 389.4 | 1056.73
283.15 K, m1 = 1.501 | 389.4 | 1081.57
283.15 K, m1 = 2.004 | 399.4 | 1103.19
288.15 K, m1 = 0.02 | 406 | 1000.48
288.15 K, m1 = 0.04 | 382.5 | 1001.81
288.15 K, m1 = 0.069 | 389.8 | 1003.99
288.15 K, m1 = 0.1997 | 393.7 | 1011.95
288.15 K, m1 = 0.4003 | 396.3 | 1023.96
288.15 K, m1 = 0.6991 | 399.5 | 1041
288.15 K, m1 = 0.9784 | 402.8 | 1055.55
288.15 K, m1 = 1.501 | 402 | 1080.23
288.15 K, m1 = 2.004 | 411.5 | 1101.6
293.15 K, m1 = 0.02 | 418 | –
293.15 K, m1 = 0.04 | 395.4 | –
293.15 K, m1 = 0.069 | 402.5 | –
293.15 K, m1 = 0.1997 | 406.4 | –
293.15 K, m1 = 0.4003 | 408.9 | –
293.15 K, m1 = 0.6991 | 411.6 | –
293.15 K, m1 = 0.9784 | 414.4 | –
293.15 K, m1 = 1.501 | 413.2 | –
293.15 K, m1 = 2.004 | 422 | –
298.15 K, m1 = 0.02 | 429 | 998.4
298.15 K, m1 = 0.04 | 406.9 | 999.67
298.15 K, m1 = 0.069 | 413.8 | 1001.72
298.15 K, m1 = 0.1997 | 417.4 | 1009.58
298.15 K, m1 = 0.4003 | 419.5 | 1021.39
298.15 K, m1 = 0.6991 | 421.9 | 1038.13
298.15 K, m1 = 0.9784 | 424.4 | 1052.5
298.15 K, m1 = 1.501 | 422.7 | 1076.86
298.15 K, m1 = 2.004 | 430.9 | 1097.81
303.15 K, m1 = 0.02 | 439 | –
303.15 K, m1 = 0.04 | 417.1 | –
303.15 K, m1 = 0.069 | 423.6 | –
303.15 K, m1 = 0.1997 | 426.9 | –
303.15 K, m1 = 0.4003 | 428.9 | –
303.15 K, m1 = 0.6991 | 430.9 | –
303.15 K, m1 = 0.9784 | 433.1 | –
303.15 K, m1 = 1.501 | 431.1 | –
303.15 K, m1 = 2.004 | 438.8 | –
308.15 K, m1 = 0.02 | 447 | 995.35
308.15 K, m1 = 0.04 | 425.7 | 996.6
308.15 K, m1 = 0.069 | 432 | 998.45
308.15 K, m1 = 0.1997 | 435.3 | 1006.4
308.15 K, m1 = 0.4003 | 437 | 1018.06
308.15 K, m1 = 0.6991 | 438.8 | 1034.6
308.15 K, m1 = 0.9784 | 440.7 | 1048.63
308.15 K, m1 = 1.501 | 438.4 | 1072.81
308.15 K, m1 = 2.004 | 445.8 | 1093.63
313.15 K, m1 = 0.02 | 455 | –
313.15 K, m1 = 0.04 | 432.5 | –
313.15 K, m1 = 0.069 | 439.5 | –
313.15 K, m1 = 0.1997 | 442.6 | –
313.15 K, m1 = 0.4003 | 444.2 | –
313.15 K, m1 = 0.6991 | 445.8 | –
313.15 K, m1 = 0.9784 | 447.5 | –
313.15 K, m1 = 1.501 | 445.1 | –
313.15 K, m1 = 2.004 | 452.2 | –
318.15 K, m1 = 0.02 | 462 | 991.53
318.15 K, m1 = 0.04 | 439.7 | 992.78
318.15 K, m1 = 0.069 | 446.1 | 994.56
318.15 K, m1 = 0.1997 | 449.1 | 1002.41
318.15 K, m1 = 0.4003 | 450.6 | 1013.97
318.15 K, m1 = 0.6991 | 452 | 1030.3
318.15 K, m1 = 0.9784 | 453.6 | 1044.19
318.15 K, m1 = 1.501 | 451 | 1068.13
318.15 K, m1 = 2.004 | 457.8 | 1088.73
323.15 K, m1 = 0.02 | 468 | –
323.15 K, m1 = 0.04 | 446 | –
323.15 K, m1 = 0.069 | 451.9 | –
323.15 K, m1 = 0.1997 | 455 | –
323.15 K, m1 = 0.4003 | 456.3 | –
323.15 K, m1 = 0.6991 | 457.6 | –
323.15 K, m1 = 0.9784 | 459 | –
323.15 K, m1 = 1.501 | 456.5 | –
323.15 K, m1 = 2.004 | 463 | –
328.15 K, m1 = 0.02 | 473 | 987.02
328.15 K, m1 = 0.04 | 450.8 | 988.24
328.15 K, m1 = 0.069 | 457.2 | 989.98
328.15 K, m1 = 0.1997 | 460.2 | 997.75
328.15 K, m1 = 0.4003 | 461.5 | 1009.18
328.15 K, m1 = 0.6991 | 462.7 | 1025.35
328.15 K, m1 = 0.9784 | 464 | 1039.16
328.15 K, m1 = 1.501 | 461.4 | 1062.99
328.15 K, m1 = 2.004 | 467.6 | 1083.37
333.15 K, m1 = 0.02 | 478 | –
333.15 K, m1 = 0.04 | 456.4 | –
333.15 K, m1 = 0.069 | 462 | –
333.15 K, m1 = 0.1997 | 464.9 | –
333.15 K, m1 = 0.4003 | 466.2 | –
333.15 K, m1 = 0.6991 | 467.3 | –
333.15 K, m1 = 0.9784 | 468.5 | –
333.15 K, m1 = 1.501 | 465.9 | –
333.15 K, m1 = 2.004 | 471.9 | –
338.15 K, m1 = 0.02 | 482 | 981.86
338.15 K, m1 = 0.04 | 460.5 | 983.14
338.15 K, m1 = 0.069 | 466.2 | 984.86
338.15 K, m1 = 0.1997 | 469.2 | 992.6
338.15 K, m1 = 0.4003 | 470.5 | 1003.94
338.15 K, m1 = 0.6991 | 471.5 | 1020.02
338.15 K, m1 = 0.9784 | 472.6 | 1033.71
338.15 K, m1 = 1.501 | 470.1 | 1057.29
338.15 K, m1 = 2.004 | 475.8 | 1077.49
343.15 K, m1 = 0.02 | 486 | –
343.15 K, m1 = 0.04 | 464 | –
343.15 K, m1 = 0.069 | 470 | –
343.15 K, m1 = 0.1997 | 473 | –
343.15 K, m1 = 0.4003 | 474.3 | –
343.15 K, m1 = 0.6991 | 475.3 | –
343.15 K, m1 = 0.9784 | 476.3 | –
343.15 K, m1 = 1.501 | 473.9 | –
343.15 K, m1 = 2.004 | 479.3 | –
348.15 K, m1 = 0.02 | 489 | 976.44
348.15 K, m1 = 0.04 | 467.7 | 977.62
348.15 K, m1 = 0.069 | 473.3 | 979.35
348.15 K, m1 = 0.1997 | 476.4 | 987.03
348.15 K, m1 = 0.4003 | 477.7 | 998.25
348.15 K, m1 = 0.6991 | 478.6 | 1014.26
348.15 K, m1 = 0.9784 | 479.7 | 1027.75
348.15 K, m1 = 1.501 | 477.3 | 1051.07
348.15 K, m1 = 2.004 | 482.4 | 1071.23
353.15 K, m1 = 0.02 | 492 | –
353.15 K, m1 = 0.04 | 472.1 | –
353.15 K, m1 = 0.069 | 476.2 | –
353.15 K, m1 = 0.1997 | 479.4 | –
353.15 K, m1 = 0.4003 | 480.6 | –
353.15 K, m1 = 0.6991 | 481.6 | –
353.15 K, m1 = 0.9784 | 482.6 | –
353.15 K, m1 = 1.501 | 480.4 | –
353.15 K, m1 = 2.004 | 485.2 | –
358.15 K, m1 = 0.02 | 494 | 969.9
358.15 K, m1 = 0.04 | 480.2 | 971.49
358.15 K, m1 = 0.069 | 478.7 | 972.88
358.15 K, m1 = 0.1997 | 481.7 | 980.97
358.15 K, m1 = 0.4003 | 483 | 991.75
358.15 K, m1 = 0.6991 | 483.9 | 1007.73
358.15 K, m1 = 0.9784 | 484.8 | 1021.37
358.15 K, m1 = 1.501 | 483.2 | 1044.38
358.15 K, m1 = 2.004 | 487.4 | 1064.53
363.15 K, m1 = 0.02 | 495 | –
363.15 K, m1 = 0.04 | 508 | –
363.15 K, m1 = 0.069 | 479.6 | –
363.15 K, m1 = 0.1997 | 482.5 | –
363.15 K, m1 = 0.4003 | 483.7 | –
363.15 K, m1 = 0.6991 | 484.6 | –
363.15 K, m1 = 0.9784 | 485.5 | –
363.15 K, m1 = 1.501 | 485.7 | –
363.15 K, m1 = 2.004 | 487.9 | –
368.15 K, m1 = 0.02 | – | 963.45
368.15 K, m1 = 0.04 | – | 964.68
368.15 K, m1 = 0.069 | – | 966.4
368.15 K, m1 = 0.1997 | – | 974.03
368.15 K, m1 = 0.4003 | – | 985.25
368.15 K, m1 = 0.6991 | – | 1001.2
368.15 K, m1 = 0.9784 | – | 1014.47
368.15 K, m1 = 1.501 | – | 1037.56
368.15 K, m1 = 2.004 | – | 1057.91
